Data published in patent US12391647B2, “Benzamide compound and preparation method, use, and pharmaceutical composition thereof” (INSTITUTE OF MATERIA MEDICA, CHINESE ACADEMY OF MEDICAL …, priority 2018, dated 2025).
Marks after values point to notes of the source that are not given here.

Key:
[1] = test system: human prostate cancer cell DU145; test: MTT assay, survival rate of tumor cells (antiproliferative activity); format: cell-based; settings: DU-145, 72 h, read-out: Antiproliferative activity against human prostate cancer cell DU145, IC50
Procedure: DU145 cells (human prostate cancer cells) in logarithmic growth phase were digested with 0.25% trypsin-EDTA to prepare single cell suspension, which was inoculated into 96-well plate overnight according to 1500 cells/well/100 μL, and fresh medium containing different concentrations of compounds to be tested and corresponding solvent control was added, and 100 μL (DMSO final concentration <0.1%) was added to each well, and the 96-well plate was further cultured at 37° C. for 72 h. 20 μL of freshly prepared PBS solution containing 5 mg/mL MTT was added to each well, and the 96-well plate was further cultured for 4 h. After the supernatant was discarded, 180 μL of DMSO was added to each well to dissolve the MTT formazan precipitate. After the 96-well plate was shaked and mixed by a micro oscillator, the optical density (OD) at the detection wavelength of 570 nm was measured. With DMSO-treated tumor cells as the control group, the inhibition rate on the growth of tumor cells of the compound to be tested was calculated from the following formula, and the IC50 was calculated according to the median-effect equation. Inhibition rate (%)=(average OD value of control group-average OD value of dosing group)/average OD value of control group×100%

STAT3 transcription = test: STAT3 specific luciferase double reporter gene experiment in DU145 cells; format: cell-based, human; settings: for STAT3 transcription inhibition activity: DU145, STAT3 specific luciferase double reporter; for IC50: Homo sapiens, DU-145, DU145 with high STAT3 expression, 24 h
Procedure: The luciferase plasmids STAT3-TA-Luc and pGMLR-TK were transiently co-transfected into DU145 cells by Lipofectamine 3000. After staying overnight, different concentrations of compounds to be tested were added and cultured for 24 hours. The supernatant was discarded, and the residue was washed twice with PBS, and then 20 μL of lysis solution was added to shake and lyse for 5 min. The supernatant was transferred to a 96-well Costar whiteplate, and 70 μL of Dual-Glo luciferase substrate solution was added, and the relative fluorescence intensity of firefly luciferase was detected, and then 70 μL of Stop-Glo substrate solution was added, and the relative fluorescence intensity of sea kidney luciferase was detected, the normalized value was obtained, and the inhibition rate and IC50 value were calculated.

p-STAT3 (Tyr705) = test: Western blotting of p-STAT3 expression in DU145 cells; format: cell-based, human
Procedure: DU145 cells treated for 16 h with different concentrations of examples 12, 23, 33 and 34 and DU145 cells in control group were collected and washed twice with pre-cooled PBS. After appropriate amount of RIPA lysate (50 mM Tris-HCl, 1 mM EDTA, 1% Triton X-100, 150 mM NaCl, 0.1% SDS, 1 mM NaF, Na3VO4, protease inhibitor, pH 7.4) was added to lyse for 1 h on ice, the reaction mixture was centrifuged at 4° C., 12,000 rpm for 20 min, and then the supernatant was collected for protein quantification and boiled for denaturation. Equal amount of protein was taken for 10% SDS-PAGE electrophoresis. The specific antibodies of p-STAT3 (Tyr705) and STAT3 were used as primary antibody, which was incubated overnight at 4° C. The corresponding HRP-labeled secondary antibody was used, incubated at room temperature for 2 h, and washed. ECL chemiluminescence substrate reaction solution was added to develop in gel imaging system, and the image was saved. (3-actin was used as internal reference.

[2] = test system: xenograft tumor of human prostate cancer DU145; test: Xenotransplantation efficacy study in nude mice; format: in vivo; settings: for Tumor growth inhibition: oral, DU145 xenograft; for inhibitory effect on the growth of xenograft tumor: subcutaneous DU145 xenograft
Procedure: Tumor cells of human prostate cancer DU145 were collected under aseptic conditions, and the cell density was adjusted to 1×10^6 cells/mL with sterilized normal saline, and then 0.2 mL of which was inoculated subcutaneously in the axillary back of nude mice. When the tumor grew to 1 cm in diameter, it was taken out under aseptic conditions, cut into tumor blocks with the size of 1 mm×1 mm, and inoculated subcutaneously in the axillary back of nude mice. Two weeks later, after the tumor grew to 100˜300 mm^3, the animals were randomly divided into groups and began to be administered (recorded as day 0). The compound to be tested is administered orally. The animals were weighed twice a week and the length and width of tumor were measured with vernier caliper. After the experiment, the nude mice were dislocated and killed, and the tumor tissues were stripped, weighed and photographed. Finally, the tumor inhibition rate was calculated, and the anti-tumor effect was evaluated by the tumor inhibition rate. The results are shown in tables 3 and 4 and FIGS. 2 and 3.
The tumor volume is calculated according to the following formula:
Tumor volume=(a×b^2)/2, where a and b represent the length and width of tumor respectively.
The tumor growth inhibition percentage is calculated according to the following formula: tumor growth inhibition (%)=(1−T/C)×100, T is the tumor volume of group of the compound to be tested, and C is the tumor volume of the solvent control group.

For `COc1ccc(S(=O)(=O)Nc2cc(C(=O)NCc3cccnc3)ccc2C)cc1` [Example 13, 3-((4-methoxyphenyl)sulfonamido)-4-methyl-N-(pyridin-3-ylmethyl)benzamide], the IC50 [1] was 180 ± 80 nM, the “STAT3 transcription inhibition activity” value (STAT3 transcription) was “obvious STAT3 transcription inhibition activity” and the IC50 (STAT3 transcription) was 10000 ± 2100 nM.

For `COc1ccc(CNC(=O)c2ccc(C)c(NS(=O)(=O)c3ccc(C)cc3)c2)cn1` [Example 34, N-((6-methoxypyridin-3-yl)methyl)-4-methyl-3-((4-methylphenyl)sulfonamido)benzamide], the IC50 [1] was 6 ± 2 nM, the “STAT3 transcription inhibition activity” value (STAT3 transcription) was “obvious STAT3 transcription inhibition activity” and the IC50 (STAT3 transcription) was 800 ± 270 nM. For the same molecule, the “inhibitory activity on STAT3 phosphorylation” value (from here on “inhibitory activity”) (p-STAT3 (Tyr705); DU145, 0.1 μM concentration) was “obvious inhibitory activity”.

For `Cc1ccc(S(=O)(=O)Nc2cc(C(=O)NCc3ccc(C)nc3)ccc2C)cc1` [Example 33, 4-methyl-3-((4-methylphenyl)sulfonamido)-N-((6-methylpyridin-3-yl)methyl)benzamide], the IC50 [1] was 8 ± 1 nM, the “STAT3 transcription inhibition activity” value (STAT3 transcription) was “obvious STAT3 transcription inhibition activity” and the IC50 (STAT3 transcription) was 500 ± 120 nM. For the same molecule, the “inhibitory activity” value (p-STAT3 (Tyr705); DU145, 0.1 μM concentration) was “obvious inhibitory activity”, the Tumor growth inhibition ([2]; 20 mg/kg × 6 times) was 63.0** % and the Tumor growth inhibition ([2]; 40 mg/kg × 5 times) was 80.0** %. For the same molecule, the “inhibitory effect on the growth of xenograft tumor” value (from here on “inhibitory effect on the growth”) [2] was “significant inhibitory effects”.

In the case of `Cc1ccc(S(=O)(=O)Nc2cc(C(=O)NCc3ccc(C(F)(F)F)nc3)ccc2C)cc1` [Example 35, 4-methyl-3-((4-methylphenyl)sulfonamido)-N-((6-(trifluoromethyl)pyridin-3-yl)methyl)benzamide], the IC50 [1] is reported as 200 ± 70 nM, the “STAT3 transcription inhibition activity” value (STAT3 transcription) is reported as “obvious STAT3 transcription inhibition activity” and the IC50 (STAT3 transcription) is reported as 8000 nM.

`Cc1ccc(S(=O)(=O)Nc2cc(C(=O)NCc3cccnc3)ccc2C)c(C)c1` [Example 17, 3-((2,4-dimethylphenyl)sulfonamido)-4-methyl-N-(pyridinylmethyl)benzamide] was tested, and the IC50 [1] was 500 ± 40 nM and the IC50 (STAT3 transcription) was 8200 ± 20 nM.

For `CCc1ccc(C(=O)NCc2cccnc2)cc1NS(=O)(=O)c1ccc(C)cc1` [Example 6, 4-ethyl-3-((4-methylphenyl)sulfonamido)-N-(pyridin-3-ylmethyl)benzamide], the IC50 [1] was 860 ± 80 nM, the “STAT3 transcription inhibition activity” value (STAT3 transcription) was “obvious STAT3 transcription inhibition activity” and the IC50 (STAT3 transcription) was 9700 ± 1300 nM.

For `CCc1ccc(S(=O)(=O)Nc2cc(C(=O)NCc3cccnc3)ccc2C)cc1` [Example 12, 3-((4-ethylphenyl)sulfonamido)-4-methyl-N-(pyridin-3-ylmethyl)benzamide], the IC50 [1] was 40 ± 10 nM, the “STAT3 transcription inhibition activity” value (STAT3 transcription) was “obvious STAT3 transcription inhibition activity” and the IC50 (STAT3 transcription) was 1000 nM. The “inhibitory activity” value (p-STAT3 (Tyr705); DU145, 0.5 μM concentration) was “obvious inhibitory activity”, the Tumor growth inhibition ([2]; 20 mg/kg × 14 times) was 40.4% and the Tumor growth inhibition ([2]; 40 mg/kg × 11 times) was 79.7*** %. The “inhibitory effect on the growth” value [2] was “significant inhibitory effects”.

For `Cc1ccc(C(=O)NCc2cccnc2)cc1NS(=O)(=O)c1ccc(C2CC2)cc1` [Example 23, 3-((4-cyclopropylphenyl)sulfonamido)-4-methyl-N-(pyridin-3-ylmethyl)benzamide], the IC50 [1] was 50 ± 8 nM, the “STAT3 transcription inhibition activity” value (STAT3 transcription) was “obvious STAT3 transcription inhibition activity” and the IC50 (STAT3 transcription) was 1000 nM. For the same molecule, the “inhibitory activity” value (p-STAT3 (Tyr705); DU145, 0.5 μM concentration) was “obvious inhibitory activity”.

For `Cc1ccc(C(=O)NCc2cccnc2)cc1NS(=O)(=O)c1ccc(F)cc1` [Example 20, 3-((4-fluorophenyl)sulfonamido)-4-methyl-N-(pyridin-3-ylmethyl)benzamide], the IC50 [1] was 3470 ± 1220 nM, the “STAT3 transcription inhibition activity” value (STAT3 transcription) was “obvious STAT3 transcription inhibition activity” and the IC50 (STAT3 transcription) was 15000 ± 1400 nM.

In the case of `Cc1ccc(S(=O)(=O)Nc2cc(C(=O)NCc3cccnc3)ccc2C)s1` [Example 30, 4-methyl-3-((5-methylthiophene)-2-sulfonamido)-N-(pyridin-3-ylmethyl)benzamide], the IC50 [1] is reported as 1200 ± 30 nM, the “STAT3 transcription inhibition activity” value (STAT3 transcription) is reported as “obvious STAT3 transcription inhibition activity” and the IC50 (STAT3 transcription) is reported as 17500 ± 300 nM.

`Cc1ccc(S(=O)(=O)Nc2cc(C(=O)NCc3cccnc3)ccc2C)cc1` [Example 1, 4-methyl-3-((4-methylphenyl)sulfonamido)-N-(pyridin-3-ylmethyl) benzamide] was tested, and the IC50 [1] was 120 ± 30 nM, the “STAT3 transcription inhibition activity” value (STAT3 transcription) was “obvious STAT3 transcription inhibition activity” and the IC50 (STAT3 transcription) was 7000 ± 1300 nM. The “inhibitory activity” value (p-STAT3 (Tyr705); DU145, 1 μM concentration) was “obvious inhibitory activity”, the Tumor growth inhibition ([2]; 10 mg/kg × 7 times) was 58.8*** % and the Tumor growth inhibition ([2]; 20 mg/kg × 7 times) was 62.7*** %. The Tumor growth inhibition ([2]; 40 mg/kg × 7 times) was 73.5*** % and the “inhibitory effect on the growth” value [2] was “significant inhibitory effects”.

For `Cc1ccc(S(=O)(=O)Nc2cc(F)cc(C(=O)NCc3cccnc3)c2)cc1` [Example 9, 3-fluoro-5-((4-methylphenyl)sulfonamido)-N-(pyridin-3-ylmethyl)benzamide], the IC50 [1] was 900 ± 20 nM, the “STAT3 transcription inhibition activity” value (STAT3 transcription) was “obvious STAT3 transcription inhibition activity” and the IC50 (STAT3 transcription) was 6200 ± 300 nM.
